Measurements from PubChem BioAssay (NCI).
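Five compound concentrations were applied to cells in 96-well plates for 48 hours; endpoints were derived by simple linear interpolation of the resulting dose-response curve. The concentration for 50% growth inhibition is given as GI50. TGI marks complete inhibition of growth.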

Key:
Test in all cases: growth of human tumour cells (NCI), 48 h
HT29 colon = tested on: HT29 colon
OVCAR-3 ovarian = tested on: OVCAR-3 ovarian
NCI-H460 lung = tested on: NCI-H460 lung
SNB-75 CNS = tested on: SNB-75 CNS
HCT-116 colon = tested on: HCT-116 colon
SW-620 colon = tested on: SW-620 colon
T-47D breast = tested on: T-47D breast
HCT-15 colon = tested on: HCT-15 colon
HOP-92 NSCLC = tested on: HOP-92 NSCLC
KM12 colon = tested on: KM12 colon
SK-MEL-28 melanoma = tested on: SK-MEL-28 melanoma
TK-10 renal = tested on: TK-10 renal
RPMI-8226 leukemia = tested on: RPMI-8226 leukemia
SK-MEL-5 melanoma = tested on: SK-MEL-5 melanoma
HCC-2998 colon = tested on: HCC-2998 colon
MDA-N = tested on: MDA-N
NCI-H522 lung = tested on: NCI-H522 lung
MDA-MB-435 = tested on: MDA-MB-435

Compound	TGI (HT29 colon)	TGI (OVCAR-3 ovarian)	TGI (NCI-H460 lung)	TGI (SNB-75 CNS)	TGI (HCT-116 colon)	TGI (SW-620 colon)	TGI (T-47D breast)	TGI (HCT-15 colon)	TGI (HOP-92 NSCLC)	TGI (KM12 colon)	TGI (SK-MEL-28 melanoma)	TGI (TK-10 renal)	TGI (RPMI-8226 leukemia)	TGI (SK-MEL-5 melanoma)	TGI (HCC-2998 colon)	TGI (MDA-N)	TGI (NCI-H522 lung)	TGI (MDA-MB-435)	GI50 (OVCAR-3 ovarian)	GI50 (HCT-116 colon)
COc1cc(C2SCC(=O)N2c2ccc(-c3ccc(-n4c(-c5ccccc5)nc5ccccc5c4=O)cc3)cc2)ccc1O (stereo not given)	> 100 µM	> 100 µM	> 100 µM	49.8 µM	> 100 µM	> 100 µM	71.5 µM	> 100 µM	74.1 µM	> 100 µM	> 100 µM	> 100 µM	> 100 µM	> 100 µM	> 100 µM	> 100 µM	> 100 µM	> 100 µM		
CCCCCCNC(=O)c1cc(C#Cc2cc(OC)ccc2OC)ccc1OC	> 100 µM	> 100 µM	> 100 µM		> 100 µM	> 100 µM	11 µM	> 100 µM	> 100 µM	> 100 µM	> 100 µM	> 100 µM	> 100 µM	> 100 µM	6.25 µM	> 100 µM	> 100 µM	13.4 µM	> 100 µM	6.9 µM
CC(C)=CCC[C@](C)(O)[C@H]1CC[C@]2(C)[C@@H]1[C@H](O)C[C@@H]1[C@@]3(C)CC[C@H](O[C@@H]4O[C@H](CO)[C@@H](O)[C@H](O)[C@H]4O)C(C)(C)[C@@H]3CC[C@]12C	32.5 µM	32 µM	30.2 µM	33.5 µM	41.2 µM	36.6 µM	34 µM	32.8 µM	33.7 µM	33.3 µM	34.8 µM	39.6 µM	38.8 µM	32.1 µM	49.4 µM	36.3 µM	31.9 µM	36.1 µM		
Cc1c(C)c(S(=O)(=O)N(CCCCCN)OCCCN)c(C)c2c1OC(C)(C)CC2	28.7 µM	19.9 µM	19.7 µM	25.7 µM	30 µM	> 40.2 µM	> 57.8 µM	42.5 µM	67.6 µM	8.93 µM	65.4 µM	37.8 µM	18 µM	> 50.4 µM	6.05 µM	31.1 µM	13.3 µM	15.3 µM		
COc1ccc(-n2nnc3c(C#N)c(-c4ccccc4)c(C)n3c2=O)cc1	> 100 µM	> 100 µM	> 100 µM	72.1 µM	> 100 µM	> 100 µM	> 100 µM	> 100 µM	> 100 µM	> 100 µM	> 100 µM	> 100 µM	> 100 µM	48 µM	> 100 µM	> 100 µM	> 100 µM	> 100 µM		
CCCCOP(=O)(OCCCC)/C(C#N)=C/c1ccc(C)o1	> 100 µM	57.6 µM	> 100 µM	> 100 µM	> 100 µM	> 100 µM	> 100 µM	> 100 µM	79.6 µM	> 100 µM	> 100 µM	> 100 µM	> 100 µM	76.1 µM	> 100 µM	95.5 µM	> 100 µM	95.9 µM		
CC1(C)CC(=O)C(CC(C(=O)C(=O)Nc2cc(C(F)(F)F)ccc2Cl)C(=O)c2ccco2)C(=O)C1 (stereo not given)	> 100 µM	> 100 µM	> 100 µM		> 100 µM	> 100 µM	> 100 µM	> 100 µM	> 100 µM	> 100 µM	> 100 µM	> 100 µM	> 100 µM	> 100 µM	> 100 µM	> 100 µM	> 100 µM	> 100 µM		
O=C1NCC2(CCN(Cc3ccccc3)CC2)N1	> 100 µM	> 100 µM	> 100 µM	> 100 µM	> 100 µM	> 100 µM	> 100 µM	> 100 µM	> 100 µM	> 100 µM	> 100 µM	> 100 µM	> 100 µM	> 100 µM	> 100 µM	> 100 µM	> 100 µM	> 100 µM		
C[C@@H](C(=O)O)c1ccc(-c2ccccc2)c(F)c1	> 100 µM	> 100 µM	> 100 µM	> 100 µM	> 100 µM	> 100 µM	> 100 µM	> 100 µM	> 100 µM	> 100 µM	> 100 µM	> 100 µM	> 100 µM	> 100 µM	> 100 µM	> 100 µM	> 100 µM	> 100 µM		
Brc1ccccc1/C=C\C1(c2ccccc2)OCCO1	19 µM	25.5 µM	34.2 µM	28.6 µM	11.9 µM		31.4 µM	19.5 µM	46.9 µM	7.17 µM	46.9 µM	31.7 µM	6.78 µM	29.1 µM	32.2 µM	25.3 µM	22.6 µM	24.6 µM		
OC(c1ccsc1)c1cc2ccccc2s1 (stereo not given)	> 10 µM	> 10 µM	> 10 µM	> 10 µM	> 10 µM	> 10 µM	> 10 µM	> 10 µM	> 10 µM	> 10 µM	> 10 µM	> 10 µM	> 10 µM	> 10 µM	> 10 µM	> 10 µM	> 10 µM	> 10 µM		
COc1ccc(-c2nc(N(C)C)c3ccccc3n2)cc1	22.7 µM		26.9 µM	40.4 µM	17.4 µM	63.5 µM	49.1 µM	37.8 µM	68.8 µM	68.8 µM	33.7 µM	65.8 µM	24.3 µM	26.2 µM	23.5 µM	32.5 µM	27.8 µM	33.8 µM		
CN(C)CCSC(=Nc1ccccc1)N1C=COC=C1	> 100 µM	> 81.8 µM	> 100 µM	> 100 µM	45 µM	43.5 µM	74.4 µM	47.4 µM	73.2 µM	> 100 µM	40.4 µM	> 100 µM	> 100 µM	34 µM	50.5 µM	45.4 µM	34 µM	34.8 µM		
C[C@@H]1CCC2[C@@H](C)[C@H](O[C@H]3O[C@@H]4O[C@@]5(C)CCC6[C@H](C)CCC([C@H]3C)[C@]64OO5)O[C@@H]3O[C@@]4(C)CCC1[C@@]23OO4 (stereo not given in full)	13.4 µM	18.3 µM	17 µM	14.5 µM	12.7 µM	16.5 µM	22.2 µM	12.4 µM	11.4 µM	13.3 µM	27.3 µM	17.2 µM	1.46 µM	12.8 µM	14.5 µM	19.2 µM	12.9 µM	21.6 µM		
CC/C(Cl)=N\OC(=O)Nc1ccccc1OC(F)(F)F	44.4 µM	22.2 µM	44.2 µM	48.2 µM	27 µM		14.4 µM	> 24.2 µM	6.15 µM	41.6 µM	41.5 µM	23.8 µM	4.12 µM	22.1 µM	37.8 µM	22.9 µM	2.9 µM	40.7 µM		
Nc1ccn([C@H]2CO[C@@H](CO)O2)c(=O)n1	> 100 µM	> 100 µM	> 100 µM	> 100 µM	> 100 µM	> 100 µM	> 100 µM	> 100 µM	43.8 µM	> 100 µM	> 100 µM	> 100 µM	> 100 µM	> 100 µM	> 100 µM	> 100 µM	> 100 µM	> 100 µM		
CC1=NN(C(=O)CC(=O)Nc2ccccc2C)C(=O)C1N=Nc1ccc(S(=O)(=O)c2ccc(N=NC3C(=O)N(C(=O)CC(=O)Nc4ccccc4C)N=C3C)cc2)cc1 (stereo not given)	> 100 µM	> 100 µM	> 100 µM	> 100 µM	> 100 µM		> 100 µM	> 100 µM	> 100 µM	> 100 µM	> 100 µM	> 100 µM	> 100 µM	> 100 µM	> 100 µM	> 100 µM	> 100 µM	> 100 µM		
CC(C)(C)c1ccc(-c2nc3ccccc3c(=O)o2)cc1	> 100 µM	62.1 µM	> 100 µM	95.2 µM	> 100 µM	> 100 µM	> 100 µM	> 100 µM	> 100 µM	> 100 µM	> 100 µM	> 100 µM	93.3 µM	38.2 µM	85.5 µM	> 100 µM	69.6 µM	> 100 µM		
C=CC1(c2ccc3ccccc3c2)OCC(CC)(CC)CO1	57.5 µM	51.5 µM	46.8 µM	96.1 µM	43.2 µM	43.4 µM	52.2 µM	35.1 µM	52 µM	40.6 µM	> 100 µM	89.5 µM	80.4 µM	34 µM	37.3 µM	65.8 µM	50.9 µM	65.7 µM		
Cc1cc(=O)oc2c(CNC(C)C(=O)O)c(O)ccc12 (stereo not given)	> 100 µM	> 100 µM	> 100 µM	> 100 µM	> 100 µM	> 100 µM	> 100 µM	> 100 µM	> 100 µM	> 100 µM	> 100 µM	> 100 µM	> 100 µM	> 100 µM	> 100 µM	> 100 µM	> 100 µM	> 100 µM		
CC(=O)OCc1cccc(O)c1C(=O)CCC=C(C)C	> 100 µM	> 100 µM	> 100 µM		> 100 µM	> 100 µM	> 100 µM	> 100 µM	> 100 µM	> 100 µM	> 100 µM	> 100 µM	> 100 µM	> 100 µM	> 100 µM	> 100 µM	56.6 µM	> 100 µM		
C[C@H](CCC(=O)O[C@@H]1CC[C@@]2(C)C(CC[C@H]3[C@@H]4CC[C@H]([C@H](C)CCc5nc6ccccc6[nH]5)[C@@]4(C)CC[C@@H]32)C1)[C@H]1CC[C@H]2[C@@H]3CCC4C[C@H](O)CC[C@]4(C)[C@H]3CC[C@]12C (stereo not given in full)	> 100 µM	> 100 µM	> 100 µM	> 100 µM	> 100 µM	> 100 µM	> 100 µM	> 100 µM	> 100 µM	> 100 µM	> 100 µM	> 100 µM	> 100 µM	> 100 µM	> 100 µM	> 100 µM	> 100 µM	> 100 µM		
CN(C)C(=S)N/N=C\C(=N/NC(=S)N(C)C)c1ccccc1	> 100 µM	> 23.4 µM	> 100 µM	> 53.7 µM	> 46.5 µM	> 100 µM	4.77 µM	> 100 µM	92.1 µM	> 100 µM	> 100 µM	> 100 µM	> 100 µM	> 100 µM	> 100 µM	> 100 µM	9.86 µM	> 100 µM		
CN(C)C1(C(=O)O)CC1	> 100 µM	> 100 µM	> 100 µM	> 100 µM	> 100 µM	> 100 µM	> 100 µM	> 100 µM	> 100 µM		> 100 µM	> 100 µM	> 100 µM	> 100 µM	> 100 µM	> 100 µM	> 100 µM	> 100 µM		
O=C(O)CN1CCNCCN(CC(=O)O)CCNCC1	> 100 µM	> 100 µM	> 50.5 µM	98.9 µM	> 100 µM	> 100 µM	> 100 µM	> 74.7 µM	> 100 µM	> 100 µM		> 100 µM	> 100 µM	21.9 µM	> 100 µM	> 31.6 µM	> 100 µM	> 100 µM		
CCOC(=O)C1=C(OS(=O)(=O)C(F)(F)F)CCCC1	> 100 µM	> 100 µM	> 100 µM	> 100 µM		> 100 µM	> 100 µM	> 100 µM	> 100 µM	> 100 µM	> 100 µM	> 100 µM	> 100 µM	> 100 µM	> 100 µM	> 100 µM	> 100 µM	> 100 µM		
